Laboratory results: patent US20120082647A1, “INTERFERON-BETA FOR USE AS MONOTHERAPY OR IN COMBINATION WITH OTHER CANCER THERAPIES” (priority 2010, published 2012)

How the values were obtained:
[1] = system: SK-MEL-1 human melanoma cells; assay: SK-MEL-1 melanoma tumor volume in nude mice; format: in vivo; details: SK-MEL-1 tumor volume; PD325901 15 mg/kg QD 14 days, pegylated Interferon-beta-1a 10 μg QW 3 weeks
Description: Tumors were measured every 3 days using calipers and volume was calculated for a prolate spheroid, defined as:
where L equals the major diameter and W equals the minor diameter.

[2] = system: ERK phosphorylation; assay: ERK phosphorylation in SK-MEL-1 tumors (western blot); format: in vivo, nude mice; details: SK-MEL-1 tumors removed 8 hours post last dose; FIG. 4
Description: Athymic nude mice were inoculated with 2×10^6 SK-MEL-1 human melanoma cells (1 injection in flank; 1 injection per mouse) and 100-200 cubic mm tumors were established. pegylated IFN β-1a was provided in 20 mM acetic acid/sodium acetate at a pH of 4.8 and 150 mM arginine/HCl containing 15 mg/mL human serum albumin (HSA). HSA was used as a control and administered at a concentration of 15 mg/mL. Mice (10 per group) were randomized and treated with either:
i. PEG400 (once a day (QD) for 14 days) and pegylated Interferon-beta-1a (10 μg once a week (QW) for 3 weeks); ii. PD325901 (15 mg/kg once a day (QD) for 14 days) and pegylated Interferon-beta-1a (10 μg once a week (QW) for 3 weeks); iii. PEG400 (once a day (QD) for 14 days) and (HSA) (QW for 3 weeks); iv. PD325901 (15 mg/kg once a day (QD) for 14 days) and HSA (QW for 3 weeks).
Tumors were measured every 3 days using calipers and volume was calculated for a prolate spheroid. The identity of the vehicle control for pegylated interferon-beta-1a vehicle (HSA) and pegylated Interferon-beta-1a was blinded. Tumors were removed 8 hours post last dose and frozen for ERK phosphorylation analysis.

[3] = system: MDA-MB-231 breast carcinoma cells; assay: MDA-MB-231 breast carcinoma tumor volume in SCID mice; format: in vivo; details: paclitaxel 25 mg/kg I.P. q4d x 3, pegylated interferon beta 1a 0.4 to 1.6 mg/kg SC BIW
Description: 8-10 week old SCID mice from Charles River Labs were inoculated subcutaneously with 5×10^6 MDA-MB-231 breast carcinoma cells with 50% matrigel in the flank region. When the average tumor volumes reached approximately 200 mm^3 the tumor-bearing mice were randomized to treatment groups. Pegylated IFN-1a was provided in 20 mM acetic acid/sodium acetate at a pH of 4.8 and 150 mM arginine/HCl (4.8A buffer). Paclitaxel was provided in a Cremophor Ethanol Saline mixture (CES buffer).

SMILES	difference between estimates of least square means between treatment groups and vehicle control group [1]	ERK phosphorylation compared to vehicle and pegylated Interferon-beta-1a treated groups [2]	inhibition of tumor growth, single agent versus vehicle controls [3]
O=C(NOC[C@H](O)CO)c1ccc(F)c(F)c1Nc1ccc(I)cc1F [PD325901, N-[(2R)-2,3-dihydroxypropoxy]-3,4-difluoro-2-[(2-fluoro-4-iodo-phenyl)amino]benzamide]	−4.52	significant inhibition of ERK phosphorylation	–
CC(=O)O[C@H]1C(=O)[C@@]2(C)[C@H]([C@H](OC(=O)c3ccccc3)[C@]3(O)C[C@H](OC(=O)[C@H](O)[C@@H](NC(=O)c4ccccc4)c4ccccc4)C(C)=C1C3(C)C)[C@]1(OC(C)=O)CO[C@@H]1C[C@@H]2O [paclitaxel]	–	–	greater inhibition of tumor growth compared to mice treated with vehicle controls
